These molecules were tested against T1, human Glucose-dependent Insulinotropic Polypeptide Receptor (hGIPR) (Homo sapiens, UniProt P48546) (assay: Functional in vitro GIPR antagonist potency assay (cAMP HTRF, CHO-K1 cells stably expressing hGIPR, hGIP stimulation at about EC80)). Settings: geometric mean, hGIP at estimated EC80, examples marked ^2: overall geometric mean of multiple forms (including salts) tested.
T1 sequence (P48546 22-466): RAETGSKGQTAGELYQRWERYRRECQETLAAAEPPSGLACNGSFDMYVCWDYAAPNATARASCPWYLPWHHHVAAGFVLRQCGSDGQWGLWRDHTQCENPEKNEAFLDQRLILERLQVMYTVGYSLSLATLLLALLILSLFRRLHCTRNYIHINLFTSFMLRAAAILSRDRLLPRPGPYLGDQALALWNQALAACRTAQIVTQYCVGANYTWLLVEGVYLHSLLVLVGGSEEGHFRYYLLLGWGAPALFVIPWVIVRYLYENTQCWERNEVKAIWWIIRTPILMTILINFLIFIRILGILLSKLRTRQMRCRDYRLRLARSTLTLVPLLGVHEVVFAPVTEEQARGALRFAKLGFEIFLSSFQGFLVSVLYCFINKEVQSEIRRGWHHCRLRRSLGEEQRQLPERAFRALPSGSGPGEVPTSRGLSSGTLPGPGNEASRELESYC
Type: cell-based
In short: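 HTRF quantification of cAMP after stimulation with hGIP at an estimated EC80 for 30 min at 37 °C. Before stimulation, hGIPR-expressing CHO-K1 cells were exposed 2 h to test compound in IBMX-containing buffer, with 0.5% DMSO final. Percent effect is referenced to agonist alone (0%) and to 80 μM of a reference antagonist (100%), and runs required the agonist concentration to fall within the on-the-day EC50–EC90.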
For `CC(C)c1ccc(NC(=O)N2CCC[C@@H]2C(=O)Nc2ccc(-c3cc(F)cc(C(=O)O)c3)cc2)cc1` [Example 85, 5-fluoro-4′-[(1-{[4-(propan-2-yl)phenyl]carbamoyl}-D-prolyl)amino][1,1′-biphenyl]-3-carboxylic acid], the IC50 was 260 nM. `Cc1cc(-c2ccc(NC(=O)[C@H]3CCCN3C(=O)Nc3ccc(C(C)C)cc3)cc2)c(F)cc1C(=O)O` [Example 86, 2-fluoro-5-methyl-4′-[(1-{[4-(propan-2-yl)phenyl]carbamoyl}-D-prolyl)amino][1,1′-biphenyl]-4-carboxylic acid] showed an IC50 of 7.5 nM. `Cc1c(C(=O)O)ccc(-c2ccc(NC(=O)[C@H]3CCCN3C(=O)Nc3ccc(C(C)C)cc3)cc2)c1F` [Example 87, 2-fluoro-3-methyl-4′-[(1-{[4-(propan-2-yl)phenyl]carbamoyl}-D-prolyl)amino][1,1′-biphenyl]-4-carboxylic acid] gave an IC50 of 11 nM. With `CC(C)c1ccc(NC(=O)N2CCC[C@@H]2C(=O)Nc2ccc(-c3ccc(F)c(C(=O)O)c3F)cc2)cc1` [Example 88, 2,4-difluoro-4′-[(1-{[4-(propan-2-yl)phenyl]carbamoyl}-D-prolyl)amino][1,1′-biphenyl]-3-carboxylic acid] the IC50 was 430 nM. `COc1cc(-c2ccc(NC(=O)[C@H]3CCCN3C(=O)Nc3ccc(C(C)C)cc3)cc2)c(F)cc1C(=O)O` [Example 89, 2-fluoro-5-methoxy-4′-[(1-{[4-(propan-2-yl)phenyl]carbamoyl}-D-prolyl)amino][1,1′-biphenyl]-4-carboxylic acid] was tested, and the IC50 was 18 nM. In the case of `Cc1cc(C(=O)O)cc(Cl)c1-c1ccc(NC(=O)[C@H]2CCCN2C(=O)Nc2ccc(C(C)C)cc2)cc1` [Example 90, 2-chloro-6-methyl-4′-[(1-{[4-(propan-2-yl)phenyl]carbamoyl}-D-prolyl)amino][1,1′-biphenyl]-4-carboxylic acid], the IC50 is reported as 45 nM. `CC(C)c1ccc(NC(=O)N2CCC[C@@H]2C(=O)Nc2ccc(-c3ccc(C(N)=O)cc3)cc2)cc1` [Example 91, (2R)-N^2-(4′-carbamoyl[1,1′-biphenyl]-4-yl)-N^1-[4-(propan-2-yl)phenyl]pyrrolidine-1,2-dicarboxamide] was tested, and the IC50 was 39 nM. `COc1cc(C(=O)O)cc(C)c1-c1ccc(NC(=O)[C@H]2CCCN2C(=O)Nc2ccc(C(C)C)cc2)cc1` [Example 92, 2-methoxy-6-methyl-4′-[(1-{[4-(propan-2-yl)phenyl]carbamoyl}-D-prolyl)amino][1,1′-biphenyl]-4-carboxylic acid] gave an IC50 of 87 nM. With `COc1ccc(-c2ccc(NC(=O)[C@H]3CCCN3C(=O)Nc3ccc(C(C)C)cc3)cc2)cc1C(=O)O` [Example 93, 4-methoxy-4′-[(1-{[4-(propan-2-yl)phenyl]carbamoyl}-D-prolyl)amino][1,1′-biphenyl]-3-carboxylic acid] the IC50 was 79 nM. In the case of `Cc1ccc(C(=O)O)cc1-c1ccc(NC(=O)[C@H]2CCCN2C(=O)Nc2ccc(C(C)C)cc2)cc1` [Example 94, 6-methyl-4′-[(1-{[4-(propan-2-yl)phenyl]carbamoyl}-D-prolyl)amino][1,1′-biphenyl]-3-carboxylic acid], the IC50 is reported as 190 nM. For `CCc1cc(-c2ccc(NC(=O)[C@H]3CCCN3C(=O)Nc3ccc(C(C)C)cc3)cc2)ccc1C(=O)O` [Example 95, 3-ethyl-4′-[(1-{[4-(propan-2-yl)phenyl]carbamoyl}-D-prolyl)amino][1,1′-biphenyl]-4-carboxylic acid], the IC50 was 13 nM. Molecule `CC(C)c1ccc(NC(=O)N2CCC[C@@H]2C(=O)Nc2ccc(-c3ccc(O)c(Cl)c3)cc2)cc1` [Example 96, (2R)-N^2-(3′-chloro-4′-hydroxy[1,1′-biphenyl]-4-yl)-N^1-[4-(propan-2-yl)phenyl]pyrrolidine-1,2-dicarboxamide] has an IC50 of 180 nM. `Cc1cc(O)ccc1-c1ccc(NC(=O)[C@H]2CCCN2C(=O)Nc2ccc(C(C)C)cc2)cc1` [Example 97, (2R)-N^2-(4′-hydroxy-2′-methyl[1,1′-biphenyl]-4-yl)-N^1-[4-(propan-2-yl)phenyl]pyrrolidine-1,2-dicarboxamide] showed an IC50 of 230 nM. For `CC(C)c1ccc(NC(=O)N2CCC[C@@H]2C(=O)Nc2ccc(-c3cc(Cl)c(C(=O)O)cc3F)cc2)cc1` [Example 98, 5-chloro-2-fluoro-4′-[(1-{[4-(propan-2-yl)phenyl]carbamoyl}-D-prolyl)amino][1,1′-biphenyl]-4-carboxylic acid], the IC50 was 30 nM. `CC(C)c1ccc(NC(=O)N2CCC[C@@H]2C(=O)Nc2ccc(-c3cc(F)c(O)c(F)c3)cc2)cc1` [Example 99, (2R)-N^2-(3′,5′-difluoro-4′-hydroxy[1,1′-biphenyl]-4-yl)-N^1-[4-(propan-2-yl)phenyl]pyrrolidine-1,2-dicarboxamide] was tested, and the IC50 was 18 nM. For `CC(C)c1ccc(NC(=O)N2CCC[C@@H]2C(=O)Nc2ccc(-c3ccc(O)c(C#N)c3)cc2)cc1` [Example 100, (2R)-N^2-(3′-cyano-4′-hydroxy[1,1′-biphenyl]-4-yl)-N^1-[4-(propan-2-yl)phenyl]pyrrolidine-1,2-dicarboxamide], the IC50 was 27 nM. In the case of `O=C(O)c1ccc(-c2ccc(NC(=O)[C@H]3CCCN3C(=O)Nc3cnc(C(F)(F)F)nc3)cc2)cc1` [Example 101, 4′-[(1-{[2-(trifluoromethyl)pyrimidin-5-yl]carbamoyl}-D-prolyl)amino][1,1′-biphenyl]-4-carboxylic acid], the IC50 is reported as 92 nM. `Cc1nc(NC(=O)N2CCC[C@@H]2C(=O)Nc2ccc(-c3ccc(C(=O)O)cc3)cc2)ccc1C(C)C` [Example 102, 4′-[(1-{[6-methyl-5-(propan-2-yl)pyridin-2-yl]carbamoyl}-D-prolyl)amino][1,1′-biphenyl]-4-carboxylic acid] showed an IC50 of 690 nM. Work on `O=C(O)c1ccc(-c2ccc(NC(=O)[C@H]3CCCN3C(=O)Nc3ccc(Cl)cc3Cl)cc2)cc1` [Example 103, 4′-({1-[(2,4-dichlorophenyl)carbamoyl]-D-prolyl}amino)[1,1′-biphenyl]-4-carboxylic acid] yielded an IC50 of 29 nM. With `CC(C)c1ccc(NC(=O)N2C[C@H]3C[C@H]3[C@@H]2C(=O)Nc2ccc(-c3ccc(C(=O)O)cc3)cc2)cc1` [Example 104, 4′-{[(1R,2R,5S)-3-{[4-(propan-2-yl)phenyl]carbamoyl}-3-azabicyclo[3.1.0]hexane-2-carbonyl]amino}[1,1′-biphenyl]-4-carboxylic acid] the IC50 was 2.9 nM. With `CC(C)c1ccc(NC(=O)N2C[C@@H]3C[C@@H]3[C@@H]2C(=O)Nc2ccc(-c3ccc(C(=O)O)cc3)cc2)cc1` [Example 105, 4′-{[(1S,2R,5R)-3-{[4-(propan-2-yl)phenyl]carbamoyl}-3-azabicyclo[3.1.0]hexane-2-carbonyl]amino}[1,1′-biphenyl]-4-carboxylic acid] the IC50 was 8.8 nM. `Cc1cc(NC(=O)N2CCC[C@@H]2C(=O)Nc2ccc(-c3ccc(C(=O)O)cc3)cc2)ccc1C(F)(F)F` [Example 106, 4′-[(1-{[3-methyl-4-(trifluoromethyl)phenyl]carbamoyl}-D-prolyl)amino][1,1′-biphenyl]-4-carboxylic acid] showed an IC50 of 3 nM. For `N#Cc1cc(CNC(=O)N2CCC[C@@H]2C(=O)Nc2ccc(-c3ccc(C(=O)O)cc3)cc2)ccc1Cl` [Example 107, 4′-[(1-{[(4-chloro-3-cyanophenyl)methyl]carbamoyl}-D-prolyl)amino][1,1′-biphenyl]-4-carboxylic acid], the IC50 was 720 nM. Work on `O=C(O)c1ccc(-c2ccc(NC(=O)[C@H]3CCCN3C(=O)NCc3cnc(C(F)(F)F)nc3)cc2)cc1` [Example 108, 4′-{[1-({[2-(trifluoromethyl)pyrimidin-5-yl]methyl}carbamoyl)-D-prolyl]amino}[1,1′-biphenyl]-4-carboxylic acid] yielded an IC50 of 260 nM. With `CC(C)c1ccc(CNC(=O)N2CCC[C@@H]2C(=O)Nc2ccc(-c3ccc(C(=O)O)cc3)cc2)cc1` [Example 109, 4′-{[1-{{[4-(propan-2-yl)phenyl]methyl}carbamoyl)-D-prolyl]amino}[1,1′-biphenyl]-4-carboxylic acid] the IC50 was 5.1 nM. In the case of `O=C(O)c1ccc(-c2ccc(NC(=O)[C@H]3CCCN3C(=O)Nc3ccc(Cl)c(C(F)(F)F)c3)cc2)cc1` [Example 110, 4′-[(1-{[4-chloro-3-(trifluoromethyl)phenyl]carbamoyl}-D-prolyl)amino][1,1′-biphenyl]-4-carboxylic acid], the IC50 is reported as 3.7 nM. `CCC(C)c1ccc(NC(=O)N2CCC[C@@H]2C(=O)Nc2ccc(-c3ccc(C(=O)O)cc3)cc2)cc1` (stereo partly drawn) [Example 111, 4′-[(1-{[4-(butan-2-yl)phenyl]carbamoyl}-D-prolyl)amino][1,1′-biphenyl]-4-carboxylic acid] gave an IC50 of 11 nM. In the case of `CC(C)c1ncc(NC(=O)N2CCC[C@@H]2C(=O)Nc2ccc(-c3ccc(C(=O)O)cc3)cc2)cn1` [Example 112, 4′-[(1-{[2-(propan-2-yl)pyrimidin-5-yl]carbamoyl}-D-prolyl)amino][1,1′-biphenyl]-4-carboxylic acid], the IC50 is reported as 840 nM. For `O=C(O)c1ccc(-c2ccc(NC(=O)[C@H]3CCCN3C(=O)NCc3cc(Cl)cc(Cl)c3)cc2)cc1` [Example 113, 4′-[(1-{[(3,5-dichlorophenyl)methyl]carbamoyl}-D-prolyl)amino][1,1′-biphenyl]-4-carboxylic acid], the IC50 was 21 nM. With `O=C(O)c1ccc(-c2ccc(NC(=O)[C@H]3CCCN3C(=O)Nc3ccc(C4CCCCC4)cc3)cc2)cc1` [Example 114, 4′-({1-[(4-cyclohexylphenyl)carbamoyl]-D-prolyl}amino)[1,1′-biphenyl]-4-carboxylic acid] the IC50 was 40 nM.

— patent US20240366598A1, “GLUCOSE-DEPENDENT INSULINOTROPIC POLYPEPTIDE RECEPTOR ANTAGONISTS AND USES THEREOF” (Pfizer Inc., priority 2023, published 2024)
